Results reported in patent US20260048059A1, “USE OF SUBSTITUTED BENZOXAZOLE AND BENZOFURAN COMPOUNDS FOR THE TREATMENT AND PREVENTION OF DISEASES ASSOCIATED WITH CHRONIC FATIGUE, EXHAUSTION AND/OR EXERTIONAL INTOLERANC” (MITODICURE GMBH, priority 2022, published 2026).

Test system: isolated rat soleus muscle
Assay: Ex vivo isolated rat soleus muscle: residual contractile force in high KCl (12.5 mM) buffer
Conditions: salbutamol 1 μM alone (control group); 30 min in KCl 12.5 mM buffer, relative to last force in initial buffer
Text: The isolated rat muscle either soleus muscle or extensor digitorum longus muscle is a well-characterized and well-validated model for the study of the function of the Na^+/K^+ ATPase. The isolated rat soleus muscle is particularly appropriate for experiments ex vivo as it is very thin so that there is no need for blood supply. […] In the experimental setting used, the high KCl concentration buffer causes partial depolarization that leads to sodium influx to disturb and to decrease excitability to subsequently reduce muscle force. Stimulation of Na^+/K^+ ATPase lowers intracellular sodium levels towards physiological levels to restore excitability and muscular force during electrical stimulation.
As the phosphodiesterase isoenzyme subtype 7 (PDE7) is the predominant PDE isoenzyme in skeletal muscle to raise cAMP this ex vivo model is suited for the testing the effect of PDE7 inhibitors and in particular their effect on force generation disturbed by mechanisms that worsen excitability or the energetic situation. […] High level activity of Na^+/K^+ ATPase stimulated by cAMP can counteract the decrease in excitability and the loss of force. […]
Force measurement: The experimental set-up used for force measurements allowed for the simultaneous recordings from 6 muscles in separate incubation chambers in parallel. Force was recorded and stored with a Notocord HEM data acquisition system. […]

## CC(C)(C)NCC(O)c1ccc(O)c(CO)c1 (stereo not shown) [Salbutamol]
  Mean residual contractile force in % (SEM in %): 26.6 (3.7); n = 31%
